Data: ChEMBL document CHEMBL1129990, “Effect of N9-methylation and bridge atom variation on the activity of 5-substituted 2,4-diaminopyrrolo[2,3-d]pyrimidines against dihydrofolate reductases from Pneumocystis carinii and Toxoplasma gondii” (J Med Chem, 1997)

Columns and labels:
Dihydrofolate reductase [1] = biological target: T1, Dihydrofolate reductase (Rattus norvegicus, UniProt Q920D2)
T1 sequence (Q920D2 whole entry): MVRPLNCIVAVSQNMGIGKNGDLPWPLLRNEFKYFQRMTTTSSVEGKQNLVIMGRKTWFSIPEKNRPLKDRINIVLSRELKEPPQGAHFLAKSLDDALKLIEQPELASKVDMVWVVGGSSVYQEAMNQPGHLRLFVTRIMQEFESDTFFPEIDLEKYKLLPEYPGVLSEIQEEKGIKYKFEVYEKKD
Description: Inhibition against Dihydrofolate reductase in rat liver

[2] = biological target: T2, Bifunctional dihydrofolate reductase-thymidylate synthase (Toxoplasma gondii, UniProt Q07422)
T2 sequence (Q07422 whole entry): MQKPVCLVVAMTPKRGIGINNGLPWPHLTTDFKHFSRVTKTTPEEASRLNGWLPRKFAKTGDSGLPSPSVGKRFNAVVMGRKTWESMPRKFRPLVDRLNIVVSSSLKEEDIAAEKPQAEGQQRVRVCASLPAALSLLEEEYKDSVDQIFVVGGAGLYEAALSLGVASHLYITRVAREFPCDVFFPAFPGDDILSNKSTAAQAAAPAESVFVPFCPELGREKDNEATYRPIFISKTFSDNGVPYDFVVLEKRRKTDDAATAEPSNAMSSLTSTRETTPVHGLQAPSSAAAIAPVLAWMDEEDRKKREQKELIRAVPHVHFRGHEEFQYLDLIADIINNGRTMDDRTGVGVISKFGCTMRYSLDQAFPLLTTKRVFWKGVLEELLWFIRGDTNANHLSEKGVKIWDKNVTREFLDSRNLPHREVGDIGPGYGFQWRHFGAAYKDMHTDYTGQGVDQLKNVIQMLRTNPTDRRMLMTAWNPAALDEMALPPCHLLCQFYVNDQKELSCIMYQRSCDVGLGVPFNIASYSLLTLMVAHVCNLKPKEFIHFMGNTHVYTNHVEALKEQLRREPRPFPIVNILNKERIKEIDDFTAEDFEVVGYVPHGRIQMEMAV
Description: Inhibition against Dihydrofolate reductase in Toxoplasma gondii

Dihydrofolate reductase [3] = biological target: T3, Dihydrofolate reductase (Pneumocystis carinii, UniProt P16184)
T3 sequence (P16184 whole entry): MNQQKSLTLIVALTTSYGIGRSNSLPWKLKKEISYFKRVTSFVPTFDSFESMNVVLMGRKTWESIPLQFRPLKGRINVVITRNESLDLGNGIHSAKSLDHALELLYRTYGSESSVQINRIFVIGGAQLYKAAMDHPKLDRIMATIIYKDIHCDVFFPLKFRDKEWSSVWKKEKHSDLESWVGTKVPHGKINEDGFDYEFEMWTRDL
Description: Inhibition against Dihydrofolate reductase in Pneumocystis carinii

| SMILES | IC50 (Dihydrofolate reductase [1]) | IC50 [2] | IC50 (Dihydrofolate reductase [3]) |
| --- | --- | --- | --- |
| CN(Cc1c[nH]c2nc(N)nc(N)c12)c1ccc(C(=O)N(C)C(CCC(=O)O)C(=O)O)cc1 (centres undefined) | 0.06 µM | 0.15 µM | 0.044 µM |
| Nc1nc(N)c2c(CSc3ccc(Cl)c(Cl)c3)c[nH]c2n1 | 5.3 µM | 11.6 µM | 58.5 µM |
| COc1ccc(SCc2c[nH]c3nc(N)nc(N)c23)cc1OC | 16.7 µM | 2.6 µM | 11.1 µM |
| COc1ccc(OC)c(N(C)Cc2c[nH]c3nc(N)nc(N)c23)c1 | > 12 µM | 3.4 µM | > 12 µM |
| Nc1nc(N)c2c(CSc3cccc4ccccc34)c[nH]c2n1 | 3 µM | 0.81 µM | 10.6 µM |
| Nc1nc(N)c2c(CSc3ccc4ccccc4c3)c[nH]c2n1 | 82.9 µM | 9.2 µM | 929 µM |
| CN(Cc1c[nH]c2nc(N)nc(N)c12)c1ccc(Cl)c(Cl)c1 | 3 µM | 1 µM | 28.3 µM |
| CN(Cc1c[nH]c2nc(N)nc(N)c12)c1cccc2ccccc12 | 8.2 µM | 0.87 µM | 209 µM |
